In ChEMBL document CHEMBL3600376, “Antibacterial activity of diketopiperazines isolated from a marine fungus using t-butoxycarbonyl group as a simple tool for purification” (2015) one finds MIC data, which are given here for 12 compounds.

Values after ≈ are worked out from the molar mass of the structure shown. Bounds are passed on as bounds.

Common to all, as to assay type: functional
One assay relates to Staphylococcus aureus. Nature of the assay: Antibacterial activity against Staphylococcus aureus ATCC 25923 after 18 hrs by agar diffusion method. As to conditions: ATCC 25923, 18 h.
Another assay concerns Bacillus subtilis. The assay can be described thus: Antibacterial activity against Bacillus subtilis NCTC 2116 after 18 hrs by agar diffusion method. As to conditions: NCTC 2116, 18 h. For orientation: A growth-free zone around the sample is the usual read-out of agar diffusion tests.
For a further assay, the system named is Escherichia coli. Nature of the assay: Antibacterial activity against Escherichia coli ATCC 25922 after 18 hrs by agar diffusion method. The following applies: ATCC 25922, 18 h.

Consider `CC1(C)S[C@@H]2[C@H](NC(=O)[C@H](N)c3ccc(O)cc3)C(=O)N2[C@H]1C(=O)O` [AMOXICILLIN], for which the values for the MIC in the assay on Staphylococcus aureus, in the assay on Bacillus subtilis and with Escherichia coli were 0.05 µg/mL (≈ 0.137 µM), 0.03 µg/mL (≈ 0.0821 µM) and 0.8 µg/mL (≈ 2.19 µM), respectively.
On the same counts, the results for `CC(C)=CCc1c(C[C@H]2C(=O)N3CCC[C@H]3C(=O)N2C(=O)OC(C)(C)C)c2ccccc2n1C(=O)OC(C)(C)C` are 2.2 µg/mL (≈ 3.99 µM), 2.1 µg/mL (≈ 3.81 µM) and 19 µg/mL (≈ 34.4 µM).
As to `CN(C)[C@@H]1C(O)=C(C(N)=O)C(=O)[C@@]2(O)C(O)=C3C(=O)c4c(O)cccc4[C@@](C)(O)[C@H]3C[C@@H]12` [TETRACYCLINE], the MIC (commonly the lowest concentration found to suppress growth) in the assay on Staphylococcus aureus was determined as 1.5 µg/mL (≈ 3.38 µM); with Bacillus subtilis, 1.2 µg/mL (≈ 2.7 µM); in the assay with Escherichia coli it was 3.9 µg/mL (≈ 8.78 µM).
As to `O=C1N[C@@H](Cc2ccc(O)cc2)C(=O)N2CCC[C@@H]12`, the results for the MIC with Staphylococcus aureus, with Bacillus subtilis and in the assay with Escherichia coli were 10.2 µg/mL (≈ 39.2 µM), 8.7 µg/mL (≈ 33.4 µM) and over 20 µg/mL, respectively.
The corresponding values for `CC(C)(C)OC(=O)n1cc(C[C@@H]2NC(=O)[C@@H]3CCCN3C2=O)c2ccccc21` are 8.9 µg/mL (≈ 23.2 µM), 6.7 µg/mL (≈ 17.5 µM) and over 20 µg/mL.
On the same counts, the results for `CCC(C)[C@@H]1NC(=O)[C@@H]2CCCN2C1=O` (stereo partly specified) are 17.1 µg/mL (≈ 81.3 µM), 15.8 µg/mL (≈ 75.1 µM) and over 20 µg/mL.
As to `O=C1N[C@@H](Cc2c[nH]c3ccccc23)C(=O)N2CCC[C@@H]12` [BREVIANAMIDE F], the MIC against Staphylococcus aureus is 12.6 µg/mL (≈ 44.5 µM); against Bacillus subtilis it was 11.9 µg/mL (≈ 42 µM); against Escherichia coli it was over 20 µg/mL.
The corresponding values for `O=C1N[C@@H](Cc2ccccc2)C(=O)N2CCC[C@@H]12` are 15.1 µg/mL (≈ 61.8 µM), 17.2 µg/mL (≈ 70.4 µM) and over 20 µg/mL.
On the same counts, the results for `COc1ccc2c3c(n(C(=O)OC(C)(C)C)c2c1)[C@H](C=C(C)C)N1C(=O)[C@@H]2CCCN2C(=O)[C@@H]1C3` are 2.8 µg/mL (≈ 5.84 µM), 3.3 µg/mL (≈ 6.88 µM) and 16.4 µg/mL (≈ 34.2 µM).
For `CC(C)[C@@H]1NC(=O)[C@H]2CCCN2C1=O`, the values for the MIC in the assay on Staphylococcus aureus, with Bacillus subtilis and against Escherichia coli were 15.6 µg/mL (≈ 79.5 µM), 16 µg/mL (≈ 81.5 µM) and 18.5 µg/mL (≈ 94.3 µM), respectively.
The corresponding values for `CC(C)[C@@H]1NC(=O)[C@@H]2CCCN2C1=O` are 16.3 µg/mL (≈ 83.1 µM), 18.2 µg/mL (≈ 92.7 µM) and over 20 µg/mL.
On the same counts, the results for `CC(C)C[C@@H]1NC(=O)[C@@H]2CCCN2C1=O` are 18.8 µg/mL (≈ 89.4 µM), 15.7 µg/mL (≈ 74.7 µM) and over 20 µg/mL.
